Earlier results as cited in patent publication US20070219192A1, “Certain chemical entities, compositions, and methods” (priority 2005, published 2007).

System: A549 cells
Conditions: data provided by National Cancer Institute, Developmental Therapeutic Program

In order of rising GI50:
1. CC(=O)O[C@H]1C(=O)[C@@]2(C)[C@H]([C@H](OC(=O)c3ccccc3)[C@]3(O)C[C@H](OC(=O)[C@H](O)[C@@H](NC(=O)c4ccccc4)c4ccccc4)C(C)=C1C3(C)C)[C@]1(OC(C)=O)CO[C@@H]1C[C@@H]2O [paclitaxel]  4 nM
2. COc1cccc2c1C(=O)c1c(O)c3c(c(O)c1C2=O)C[C@@](O)(C(=O)CO)C[C@@H]3O[C@H]1C[C@H](N)[C@H](O)[C@H](C)O1 [doxorubicin]  63 nM
3. O=c1[nH]cc(F)c(=O)[nH]1 [5-fluorouracil]  1000 nM
4. NC(=O)NO [hydroxyurea]  500000 nM
